Test results reported in patent publication US20130052172A1, “METHODS FOR DIAGNOSING AND TREATING CARDIAC DEFECTS” (priority 2011, published 2013).
Where “and” joins values, the source holds several entries; their conditions need not be identical. Identical values can stand only once. Entries after “also recorded” stand apart in the source; their conditions may differ.

Key:
intestinal microbiota = assay: Fecal microbiota abundance by 16S/18S rRNA quantitative PCR; assay type: in vivo, rat
Protocol: In the following example, methods for quantifying microbiota abundance in rat feces are described. Fresh fecal pellets were obtained from each rat prior to (day 0) and at day 6 to 7 post treatment. Pellets were homogenized in 1 ml PBS. 200 μl of homogenate was used for microbial DNA isolation using a QIAamp DNA Stool Mini Kit (Qiagen, Valencia, Calif.). Isolated DNA samples were subjected to quantitative PCR using an iCycler (Bio-Rad, Hercules, Calif.) for microbial population enumeration. PCR reaction mixture consisted of 50% iQ SYBR Green Supermix (Bio-Rad), 0.4 μM forward and reverse primers, and 3.8% template solution in RNase/DNase free water. Primer sets specific for 16s and 18s rRNA genes of particular microbial phylum, class, genus, and species (M. smithii and L. plantarum) along with 20 reaction temperature and reference strains are detailed in FIG. 2 and Table 1.

Dahl S rats = assay: In vivo regional myocardial ischemia/reperfusion, infarct size (IS/AAR); set-up: species or system rat
Text: (§1) An anesthetized rat model was used for in vivo ischemia/reperfusion studies using the general surgical protocol and determination of infarct size (IS) described in “K(ATP) opener-induced delayed cardioprotection: involvement of sarcolemmal and mitochondrial K(ATP) channels, free radicals and MEK½” (Gross, E. et al., J. Mol. Cell. Cardiol. 35, 985-992, 2003), the entirety of which is incorporated herein by reference. Briefly, following anesthesia, a tracheotomy for artificial ventilation was performed, with the left common carotid artery cannulated for blood pressure and heart rate measurements. A thoracotomy was performed at the fifth intercostal space, the pericardium was excised, and a silk ligature was placed distal to the left atrial appendage that spanned to the sternal portion of the left ventricle, which included the left anterior descending coronary artery. Occlusion of the area described [area at risk (AAR)] was created by placing ends of the ligature through a polypropylene tube and fixing the snare to the epicardial surface with a hemostat. After 30 min, the hemostat was released to reperfuse the AAR. Following 2 h of reperfusion, the ligature was again occluded, and the AAR was determined by patent-blue negative staining. The heart was then excised, cross-sectioned into 4 to 5 slices, and separated into normal zone and AAR. Pieces were incubated in 1% 2,3,5-triphenyltetrazolium chloride to determine IS. The heart was then incubated overnight in 10% formaldehyde, and infarcted tissue was dissected from the AAR. IS was expressed as a percentage of the AAR (IS/AAR). Leptin (0.12 μg/kg) was administered intravenously as a bolus at 24 and 12 h before ischemia. Amino acids were administered intravenously as a bolus at 24 and 12 hours before ischemia or dissolved in the drinking water and given 48 hours before ischemia.

rats = assay: Myocardial ischemia/reperfusion by the protocol of example 3 (model not given); assay type: in vivo, rat; settings: antibiotics in drinking water
Text: In the following example, methods for assaying myocardial infarction in vitro and in vivo in rats as determined by ischemia/reperfusion studies are described.
as §1
For in vitro ischemia/reperfusion studies, hearts were perfused retrogradely, as described previously in Baker, J. et al. (Am. J. Physiol. Heart Circ. Physiol., 2000), the entirety of which is incorporated herein by reference. Briefly, hearts were perfused with modified Krebs-Henseleit buffer (120 mM NaCl, 25 mM NaHCO3, 4.7 mM KCl, 1.2 mM KH2PO4, 1.20 mM MgSO4, 11 mM glucose, and 1.8 mM CaCl2) bubbled with 95% O2-5% CO2 for a 40-minute stabilization period and subjected to 25 minutes of global no-flow ischemia, followed by 180 minutes of reperfusion. Before use, all perfusion fluids were filtered through cellulose acetate membranes with a pore size of 5.0 μm to remove particulate matter. Hearts were kept in temperature-controlled chambers to maintain myocardial temperature at 37° C. A balloon connected to a pressure transducer was inserted into the left ventricle to monitor cardiac function. For some experiments, hearts were stabilized for 25 minutes and then perfused with vancomycin or a mixture of antibiotics for 15 minutes before ischemia/reperfusion. During the initial 40 minute reperfusion period, recovery of mechanical function was measured as left ventricular developed pressure (LVDP) under steady-state conditions and expressed as a percentage of preischemic LVDP. At the end of the 3 hour reperfusion period, hearts were processed and stained with 2,3,5-triphenyltetrazolium chloride dye for IS determination.

leptin = assay: Plasma cytokine analysis (leptin); assay type: in vivo, rat; settings: vancomycin in drinking water, d 6 vs d 0
Protocol: The concentration of cytokines in blood of rats treated with vancomycin was quantified to identify antibiotic-induced changes. […] Blood samples were kept on ice for 30 min and then centrifuged at 1000 g for 10 min at 4° C. to obtain plasma. Plasma samples were then analyzed to determine the concentration of 23 cytokines (Eve Technologies, Calgary, AB, Canada). Antibiotic was administered continuously via drinking water as described in example 1.

[1] = Blood levels of orally administered antibiotics; assay type: in vivo, rat; settings: antibiotic given in drinking water; detection limit of assay 1 μM
Text: Dahl S rats are an established model of increased susceptibility to injury from myocardial ischemia/reperfusion (Baker, J. et al. “Resistance to myocardial ischemia in five rat strains: is there a genetic component of cardioprotection?” Am. J. Physiol. Heart Circ. Physiol. 278, H1395-H1400, 2000, Shi, Y. et al. “Increased resistance to myocardial ischemia in the Brown Norway vs. Dahl S rat: role of nitric oxide synthase and Hsp90.” J. Mol. Cell. Cardiol. 38(4):625-635, 2005). […] A minimum treatment time of 48 h with vancomycin was needed to decrease IS. A return to control values for myocardial IS at 72 h following discontinuation of vancomycin was observed (FIG. 5). To determine whether this decrease in IS was a direct effect of antibiotic present in the coronary vasculature, blood levels of vancomycin were measured. The concentration of vancomycin in blood was below detection limits of the assay used (1 μM). […]
Infarct size was measured in rats treated with the antibiotic mixture using the method described in example 3. […] To determine whether the decrease in infarct size was a direct effect of antibiotics present in the coronary vasculature, blood levels of streptomycin, neomycin, bacitracin and polymyxin B were measured. […]

## CN[C@H](CC(C)C)C(=O)N[C@H]1C(=O)N[C@@H](CC(N)=O)C(=O)N[C@H]2C(=O)N[C@H]3C(=O)N[C@H](C(=O)N[C@H](C(=O)O)c4cc(O)cc(O)c4-c4cc3ccc4O)[C@H](O)c3ccc(c(Cl)c3)Oc3cc2cc(c3O[C@@H]2O[C@H](CO)[C@@H](O)[C@H](O)[C@H]2O[C@H]2C[C@](C)(N)[C@H](O)[C@H](C)O2)Oc2ccc(cc2Cl)[C@H]1O [vancomycin, Vancomycin]
Intestinal microbiota; oral antibiotic in drinking water, Dahl S rats
  total bacterial/microbial numbers in feces: reduced total bacterial numbers; also recorded: reduced total microbial numbers; also recorded: reduce overall bacterial numbers
Intestinal microbiota; oral antibiotic treatment
  change of Bacilli abundance in feces: increased two fold
  change of Lactobacillales abundance in feces: increase abundance
  change of Proteobacteria abundance in feces: increase abundance
  increase of Proteobacteria in feces: 120 fold
Dahl S rats; Dahl S rats, antibiotic in drinking water 7 d, in vivo regional ischemia/reperfusion
  reduction in myocardial IS: ~27%
Dahl S rats; antibiotic added to the drinking water
  effect on infarct size in vivo: reduced infarct size (IS) in vivo
Dahl S rats; vancomycin 15 mg/kg/day for 72 hours, thrombopoietin i.v. 15 minutes prior to ischemia
  decrease in infarct size: 28%
rats; Dahl S rats
  response of susceptibility to ischemia/reperfusion injury: sensitive
rats; Sprague Dawley rats
  response of susceptibility to ischemia/reperfusion injury: intermediate response
rats; WAG/RijCmcr rats
  response of susceptibility to ischemia/reperfusion injury: resistant
leptin
  decrease in circulating leptin: 38±4% and 38%
[1]
  concentration in blood: < 1000 nM
